Columns and labels:
GlgA [1] = biological target: T1, GlgA (Mycobacterium tuberculosis, UniProt P9WMZ1); assay type: biochemical
T1 construct: gene glgM

GlgP = GlgP (Mycobacterium tuberculosis, UniProt P9WMW1); assay type: biochemical
GlgA [2] = biological target: T1, GlgA; test: biochemical
GlgA [3] = biological target: T1, GlgA; assay type: biochemical; remark: listed apart in the source

Nc1ncnc2c1ncn2[C@@H]1O[C@H](COP(=O)(O)OP(=O)(O)O)[C@@H](O)[C@H]1O [ADP]
MS of reaction products; coupled assay of ADP release (GlgA [1]): The next most abundant ion is consistent with the presence of the co-product, ADP

O=P(O)(O)O[C@H]1O[C@H](CO)[C@@H](O)[C@H](O)[C@H]1O [G1P, glucose 1-phosphate]
1H NMR of glycogen phosphorolysis by recombinant enzyme (GlgP): recombinant M. tuberculosis GlgP was only capable of forming G1P from glycogen and inorganic phosphate
Ki (GlgA [2]): 895 ± 60 µM

O=P(O)(O)O[C@H]1O[C@H](CO)[C@@H](O[C@H]2O[C@H](CO)[C@@H](O)[C@H](O)[C@H]2O)[C@H](O)[C@H]1O [M1P, α-maltose 1-phosphate]
1H NMR and high resolution MS of the enzyme reaction product (GlgA [3]): Recombinant M. tuberculosis GlgA converts ADP-glucose and G1P to M1P.

Source: PMC4981310 (PLoS Pathogens, 2016)
